Data from patent publication US20220220041A1, “USE OF UREA AS AN ANTIMICROBIAL ADDITIVE IN AN AQUEOUS SUSPENSION” (Omya International AG, priority 2019, published 2022).

Tests used:
[1] = system: non-sterile calcium carbonate slurry (H60), environmental bacteria; experiment: Example 3 preservation efficacy: H60 slurry with industrial grade urea solution, non-sterile H60 inoculum, TVC; type: cell-based; conditions: industrial grade urea 5.5%, calcium carbonate 69%, water 25.5% w/w, 30° C.
Protocol: (§1) All quoted bacterial counts (Total viable counts (TVC) values), unless otherwise indicated, are given in cfu/ml and determined after at least 2 days following plate-out and incubation at 30° C. and in accordance with the counting method described in “Bestimmung von aerobe mesophilen Keimen”, Schweizerisches Lebensmittelbuch, chapter 56, section 7.01, edition of 1985, revised version of 1988.
(§2) Unless otherwise stated, per tryptic soy agar plate (TSA, prepared using BD 236950) 0.1 ml of a solution or suspension is plated. Counts from 10000 cfu/ml to 99999 cfu/ml are reported as >1E4 cfu/ml. Counts from 100000 cfu/ml to 999999 cfu/ml are reported as >1E5 cfu/ml. Counts above 1000000 cfu/ml are reported as >1E6 cfu/ml.
(§3) Non-sterile slurries (H60 or H90) contain contamination with environmental bacteria at a TVC>100000 cfu/ml. The contamination originates spontaneously and a bacterial burden of at least>100000 cfu/ml is confirmed prior use as inoculum by TVC. The following bacterial species are known to occur, as identified by 16S RNA sequencing or MALDI-TOF-MS analysis: Rhizobium radiobacter, Brevundimonas intermedia, Brevundimonas diminiuta, Sphingomonas sp., Pseudomonas stutzeri, Pseudomonas sp., Comomonas aquatic.
(§4) 50 g sterile calcium carbonate slurry (H60) with a solid content of 77.3 wt.-%, based on the total weight of the H60 slurry is supplemented with industrial grade 50% (w/w) urea solution (Yara Canda Inc.) or water to different final concentrations. The industrial grade contained natural resident (i.e. bacteria in a non-growing state) bacteria. The bacterial of the industrial urea burden is 5 cfu/3 ml as determined by TVC. The species are identified by characterizing the grown colonies from the TVC by 16 S RNA sequencing, known to the person skilled in the art.
(§5) The samples are further artificially inoculated with 1 ml non-sterile calcium carbonate slurry (H60), 1 ml non-sterile calcium carbonate slurry (H90), 0.02 ml overnight culture of Escherichia coli (DSMZ 46295) and 0.02 ml overnight culture Pseudomonas putida. The control sample are not inoculated. […]

[2] = system: natural resident bacteria of industrial grade urea, not inoculated; experiment: Example 3 preservation efficacy: H60 slurry with industrial grade urea solution, not inoculated, TVC; type: cell-based; conditions: industrial grade urea 5.5%, calcium carbonate 69%, water 25.5% w/w, inoculum none, 30° C.
Protocol: as §1, §2, §4
The species identified are Sporosarcina koreensis, (Gram positive, urease positive, spore forming), Paenibacillus sp., (Gram positive, urease positive, spore forming) and Halobacillus trueperi (Gram positive, urease negative, spore forming).
as §5

[3] = system: non-sterile calcium carbonate slurry (H90), environmental bacteria; experiment: Example 2 preservation efficacy: H60 slurry with 61 wt.-% urea solution, non-sterile H90 inoculum, TVC; type: cell-based; conditions: 30° C.
Protocol: as §1, §2, §3
(§6) 50 g sterile slurry H60 with a solid content of 76.5 wt.-%, based on the total weight of the H60 slurry is supplemented with different amounts of 61 wt.-% urea solution or water. The samples are then inoculated with 1 ml non-sterile calcium carbonate slurry (H60), 1 ml non-sterile calcium carbonate slurry (H90), 0.02 ml overnight culture of Escherichia coli (DSMZ 46295) and 0.02 ml overnight culture of Pseudomonas putida. The control samples are not inoculated. Samples are incubated at 30° C. and the TVC and pH are determined at various time points (0 day, 1 day, 4, days, 8 days, 9 days and/or 13 days).

[4] = system: Escherichia coli (DSMZ 46295); experiment: Example 3 preservation efficacy: H60 slurry with industrial grade urea solution, E. coli inoculum, TVC; type: cell-based; conditions: industrial grade urea 5.5%, calcium carbonate 69%, water 25.5% w/w, 30° C.
Protocol: as §1, §2
For the preparation of inoculum with a single bacterial species (for example Escherichia coli (DSMZ 46295) or Pseudomonas putida), bacteria are spread onto Tryptic soy broth agar (BD, 236950) by dilution streaking followed by incubation at 30° C. for at least 24 h until colonies appear. Overnight cultures are generated by inoculation of 3 ml Tryptic soy broth (Fluka 22092) with a single colony followed incubation with agitation at […] at 30° C. for 24 h.
as §4, §5

[5] = system: non-sterile calcium carbonate slurry (H60), environmental bacteria; experiment: Example 4 preservation efficacy: H60 slurry with 61% (w/w) urea solution, non-sterile H60 inoculum, TVC; type: cell-based; conditions: 30° C.
Protocol: as §1, §2, §3
50 g sterile calcium carbonate slurry (H60) with a solid content of 78.3 wt.-%, based on the total weight of the H60 slurry are supplemented with 61% (w/w) urea solution to different final concentrations. The samples are inoculated with 1 ml non-sterile calcium carbonate slurry (H60). Samples are incubated at 30° C. and TVC and pH are determined at various time points (0 day, 1 day, 4, days, 11 days).

[6] = system: non-sterile calcium carbonate slurry (H60), environmental bacteria; experiment: Example 2 preservation efficacy: H60 slurry with 61 wt.-% urea solution, non-sterile H60 inoculum, TVC; type: cell-based; conditions: 30° C.
Protocol: as §1, §2, §3, §6

[7] = system: rats; conditions: cited from earlier work
[8] = Table 2, urea 2.75%, calcium carbonate 73.1%, water 24.15% w/w
[9] = Table 2, urea 7.6%, calcium carbonate 67.1%, water 25.3% w/w
[10] = Table 3, urea 0.65%, calcium carbonate 75.7%, water 23.65% w/w
[11] = Table 3, urea 2.75%, calcium carbonate 73.1%, water 24.15% w/w
[12] = urea 0.40%, calcium carbonate 75.61%, water 23.99% w/w
[13] = urea 1.10%, calcium carbonate 75.48%, water 23.42% w/w
[14] = urea 2.80%, calcium carbonate 75.21%, water 21.98% w/w

NC(N)=O [urea]
600 cfu/ml: TVC cfu/ml Day 4 [5, 14]
>1E4 cfu/ml: TVC cfu/ml Day 1 [5, 14]
<100 cfu/ml: TVC cfu/ml Day 4 [1] | TVC cfu/ml Day 8 [1] | TVC cfu/ml Day 11 [1] | TVC cfu/ml Day 13 [1] | TVC cfu/ml Day 4 [2] | TVC cfu/ml Day 11 [2] | TVC cfu/ml Day 13 [2] | TVC cfu/ml Day 1 ([2]; detection limit 100 cfu/ml) | TVC cfu/ml Day 1 [3, 8] | TVC cfu/ml Day 4 [3, 8] | TVC cfu/ml Day 8 [3, 8] | TVC cfu/ml Day 13 [3, 8] | TVC cfu/ml Day 1 [3, 9] | TVC cfu/ml Day 4 [3, 9] | TVC cfu/ml Day 8 [3, 9] | TVC cfu/ml Day 13 [3, 9] | TVC cfu/ml Day 1 [3, 11] | TVC cfu/ml Day 4 [3, 11] | TVC cfu/ml Day 9 [3, 11] | TVC cfu/ml Day 1 [4] | TVC cfu/ml Day 4 [4] | TVC cfu/ml Day 8 [4] | TVC cfu/ml Day 11 [4] | TVC cfu/ml Day 13 [4] | TVC cfu/ml Day 11 [5, 14] | TVC cfu/ml Day 4 [6, 8] | TVC cfu/ml Day 8 [6, 8] | TVC cfu/ml Day 13 [6, 8] | TVC cfu/ml Day 1 [6, 9] | TVC cfu/ml Day 4 [6, 9] | TVC cfu/ml Day 8 [6, 9] | TVC cfu/ml Day 13 [6, 9] | TVC cfu/ml Day 9 [6, 11]
100 cfu/ml: TVC cfu/ml Day 8 [2] | TVC cfu/ml Day 4 [6, 11]
>1E5 cfu/ml: TVC cfu/ml Day 1 [3, 10] | TVC cfu/ml Day 4 [3, 10] | TVC cfu/ml Day 4 [5, 12] | TVC cfu/ml Day 11 [5, 12] | TVC cfu/ml Day 1 ([5]; urea 0.40%, calcium carbonate 75.61%, water 23.99% w/w, detection limit 100 cfu/ml) | TVC cfu/ml Day 1 [5, 13] | TVC cfu/ml Day 4 [5, 13] | TVC cfu/ml Day 11 [5, 13] | TVC cfu/ml Day 1 [6, 10] | TVC cfu/ml Day 4 [6, 10]
15000 mg/kg: LD50 [7]
